Common to all, as to assay: NCI-60 cell line screen, 48 h
In assay [1] the test system is SK-MEL-5 melanoma.
The test system of assay [2] is CCRF-CEM leukemia.
For assay [3], the system named is SR leukemia.
Assay [4] has as its system MOLT-4 leukemia.
In assay [5] the test system is U251 CNS.
For assay [6], the system named is CAKI-1 renal.
For assay [7], the system named is UO-31 renal.
Assay [8] has as its system MDA-MB-231 breast.
Assay [9] relates to MCF7 breast.

Several values for one entry are separate records, joined by “and”; a condition that tells them apart may be missing. Equal values may be shown once.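 Assay format: 96-well plates, 48-hour exposure. The concentration for 50% growth inhibition is given as GI50. TGI denotes the concentration required for complete inhibition of growth.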

As to `Clc1cc(Cl)c2ns[s+]c2c1Cl`, the TGI in assay [1], in assay [2], in assay [3], in assay [4], in [5] and in assay [6] was above 100 µM each time. This molecule also had a TGI in [7] above 100 µM.

For `CNC(=S)/N=C(\N)N(C)C`, the TGI in [1], in assay [3], in assay [4], in assay [5], in [6] and in [7] was above 100 µM in each case.

As for `CCCCNC1CCCCC[C@H]1O` (some centres undefined), the TGI in assay [1], in assay [2], in assay [3], in assay [4], in assay [5] and in assay [6] was above 100 µM each time. In addition, the TGI in [7] is above 100 µM.

For `CCOC(=O)/C(C)=C(/O)C(=O)OCC`, the TGI in assay [1], in assay [2], in assay [4], in assay [5], in [6] and in assay [7] was above 100 µM each time.

With `COC(=O)[C@@]12C(=O)C=CC(=O)C1C1C(=CC2C)OC2OC3(CCCCC3)OC21` (some centres undefined), the TGI is 33.6 µM in assay [1]; 7.49 µM in assay [2]; 37.5 µM in assay [4]; 31.6 µM in assay [5]; 33.4 µM in [6]; 30.5 µM in assay [7].

For `S=c1ssc(N2CCOCC2)c1Cl`, the GI50 in assay [1] is 16.5 µM; in [3], 13.3 µM; in assay [4], 31.8 µM; in assay [5], 15 µM; in assay [6] it was above 100 µM; in assay [7] it was above 100 µM. Further, the GI50 in assay [8] was 26.6 µM. For the same molecule, the TGI in assay [1] was 30 µM; in [3] it was 65.9 µM; in [4] it was above 100 µM; in assay [5], 28.3 µM; in [6], above 100 µM; in assay [7], above 100 µM. This molecule had a TGI in assay [8] above 100 µM.

On to `COc1cc2c(cc1OCCCCC(=O)Nc1cc3c4ccccc4ccc3c3ccccc13)N=C[C@@H]1CCCN1C2=O`, for which the GI50 was 2.93 µM in assay [1]; 1.55 µM in assay [2]; 4.62 µM in assay [4]; 8.02 µM in [5]; 3.44 µM in assay [6]; 1.22 µM in assay [7]. For the same molecule, the GI50 in assay [9] was 3.45 µM; in [8], 1.06 µM. The TGI in [1] is 7.61 µM; in assay [2] it was above 100 µM; in assay [4], above 100 µM; in assay [5] it was above 100 µM; in assay [6], 13.1 µM; in [9] it was 34.1 µM. Further, the TGI in [8] came to 17 µM.

Turning to `COc1cc2[nH]c3c(c2cc1OC)CCN[C@]31CC[C@]2(CC3c4c(cc(OC)c(O)c42)CCN3C)C[C@H]1OC` (some centres undefined), the TGI is 30.6 µM in assay [1]; 26.7 µM in assay [2]; 40 µM in assay [3]; 33.8 µM in assay [4]; 36 µM in assay [5]; above 100 µM in assay [6].

Consider `CN(Cc1ccccc1)C(=O)c1ccccc1C(=O)O`, for which the TGI in assay [2], in assay [3], in [4], in assay [5], in assay [6] and in assay [7] was above 100 µM throughout.

With `c1cnn(CN(Cn2cccn2)Cn2cccn2)c1`, the TGI in assay [1], in assay [2], in assay [3], in assay [4], in [5] and in [6] was above 100 µM each time. For the same molecule, the TGI in [7] is above 100 µM.

On to `CCCC1=C(CC)C(C(=O)Nc2c(C)cccc2C)=NC(S)N1` (centres undefined), for which the TGI in assay [1], in [2], in [3], in [4], in assay [5] and in [6] was above 100 µM throughout. This molecule also showed a TGI in assay [7] above 100 µM.

On to `CCCCC(CC)COC(=O)C[N+](C)(C)CCOC(c1ccccc1)c1ccccc1` (centres undefined), for which the GI50 in assay [1] was 1.73 µM; in assay [2], 3.17 µM; in assay [3], 2.18 µM; in [4], 2.5 µM; in [5] it was 1.87 µM; in [6] it was 16.8 µM. In addition, the GI50 in [7] is 12.4 µM; in assay [9], 1.99 µM; in assay [8] it was 1.83 µM. Also, the TGI in assay [1] worked out at 3.1 µM; in [2], 11.7 µM; in assay [3] it was 5.16 µM; in assay [4], 6.66 µM; in assay [5], 3.81 µM; in assay [6] it was 31.9 µM. Further, the TGI in assay [7] was 27.3 µM; in [9], 4.34 µM; in assay [8] it was 3.88 µM.

For `CC(=O)C1Cn2c(nc3ccccc32)C[Se]1` (centres undefined), the TGI in [1] was 3.61 µM; in [2], above 100 µM; in [3], 6.96 µM; in assay [4] it was 6.79 µM; in [5], 3.76 µM; in assay [6] it was 5.54 µM. The molecule further had a TGI in [7] of 8.46 µM.

On to `COc1cc(Cc2nccc3cc(OC)c(OC)cc23)c(C(C)=O)cc1OC`, for which the GI50 was 25.6 µM and 130 µM in [1]; 15.4 µM and 16.2 µM in assay [2]; above 750 µM in assay [4]; above 750 µM in [6]; above 750 µM in assay [7]. Further, the TGI in [1] was 139 µM and 486 µM; in assay [2] it was 98.2 µM and 63 µM; in assay [3], above 750 µM; in assay [4], above 750 µM; in assay [5], 300 µM and > 750 µM; in [6] it was above 750 µM. The TGI in assay [7] is above 750 µM; in assay [9] it was 300 µM.

Turning to `CC1=CC(C)(C)N=C2SC(c3ccc(N)cc3)=NN12`, the TGI in assay [1] was above 100 µM; in assay [2], above 72.4 µM; in [3], above 72.1 µM; in assay [4], above 100 µM; in assay [5] it was above 100 µM; in [6], above 100 µM. The molecule also had a TGI in assay [7] above 100 µM.

With `c1ccc(C2N3CCCCC3[C@@H]3c4[nH]c5ccccc5c4CCN23)nc1` (some centres undefined), the TGI in [1], in assay [2], in [4], in assay [5], in assay [6] and in assay [7] was above 100 µM each time.

With `COc1cc(/C=C/c2ccc(OC)c(O)c2)cc(OC)c1`, the TGI in assay [1] is 14.4 µM; in assay [2], 15.2 µM; in assay [4], 15.7 µM; in assay [5], 15 µM; in [6], 72.8 µM; in assay [7], 41.9 µM.

On to `O=C(/C=C/c1ccc(Cl)c(Cl)c1)c1ccc2ccccc2c1`, for which the TGI in [1], in assay [2], in [3], in assay [4], in assay [5] and in assay [6] was above 100 µM each time. The same molecule registered a TGI in assay [7] above 100 µM.

Take `CCOC(=O)N[C@@H]1C(CC(=O)OC)O[C@H]2OC(C)(C)O[C@H]21` (some centres undefined): the TGI in [1], in assay [2], in assay [4], in [5], in assay [6] and in assay [7] was above 100 µM each time.

`CCOC(=O)C1SC(=Nc2ccc(C)c(C)c2)N=C1C` (centres undefined): the TGI in assay [1], in assay [2], in assay [3], in assay [4], in [5] and in assay [6] was above 100 µM in each case. This molecule came in with a TGI in [7] above 100 µM.

`CC1=[N+]([O-])c2ccccc2C(=O)C1=O`: the TGI in assay [1] is above 100 µM; in [2], 74.2 µM; in assay [4] it was above 100 µM; in [5], above 100 µM; in assay [6] it was above 100 µM; in [7] it was above 100 µM.

Consider `COC(=O)C(CC(=O)Nc1ccc(C)cc1)C(=O)C(=O)Nc1c(C(C)C)cccc1C(C)C` (centres undefined), for which the TGI in assay [2], in assay [4], in assay [5], in [6] and in assay [7] was above 100 µM each time.

With `COc1ccc2c3c([nH]c2c1[N+](=O)[O-])C(C)N(C)CC3` (centres undefined), the TGI in assay [1] is above 100 µM; in assay [2], 95.2 µM; in [4] it was above 100 µM; in assay [5] it was above 100 µM; in assay [6], above 100 µM; in assay [7], above 100 µM.

As to `[N-]=[N+]=C1C(=O)NN=C1c1ccccc1`, the TGI in assay [2], in [3], in assay [4], in assay [5] and in assay [6] was above 100 µM each time.

As to `O=C(c1cccc2ccccc12)N1CCC(C2CCN(C(=O)c3cccc4ccccc34)CC2)CC1`, the TGI in assay [1], in assay [2], in assay [3], in assay [4], in assay [5] and in [6] was above 100 µM in each case. This molecule also gave a TGI in assay [7] above 100 µM.

`Cc1[nH]c(=O)nc2[nH][nH]c(=O)c12`: the TGI in assay [2], in assay [3], in assay [4], in assay [5] and in [6] was above 100 µM each time.

As for `COc1ccc(CN2CC(C)(C)C2=O)c(OC)c1`, the TGI in assay [1], in assay [2], in assay [4], in assay [5] and in assay [7] was above 100 µM each time.

As for `O=C(N/N=C/c1cc(Br)ccc1O)N/N=C/c1cc(Br)ccc1O`, the TGI in assay [1], in [2], in assay [3], in assay [4], in assay [5] and in assay [6] was above 100 µM throughout. The molecule also gave a TGI in [7] above 100 µM.

With `Cc1nnc(NS(=O)(=O)c2ccc(N=Nc3cc(N=Nc4ccc(S(=O)(=O)Nc5nnc(C)s5)cc4)c4c(NC(=O)C(Cl)Cl)cccc4c3OC(=O)C(Cl)Cl)cc2)s1` (tested in a mixture with another compound), the TGI in [1] is 75.8 µM; in [2], above 100 µM; in assay [4], 33 µM; in [5], above 100 µM; in [6], above 100 µM; in [7], above 100 µM.

As to `CN(C)CCC1(C2=CCCC2)CC/C(=C\c2ccc(Cl)cc2)C1=O` (centres undefined), the TGI in assay [1] is 4.07 µM; in [2], above 22.7 µM; in assay [3] it was 7.42 µM; in [4], 6.02 µM; in assay [5], 21.8 µM; in [6], 19.2 µM. The molecule also displayed a TGI in [7] of 18.8 µM.

In the case of `O=C(O)CNS(=O)(=O)c1ccc(NC(=O)c2ccc([N+](=O)[O-])cc2)cc1`, the TGI in assay [1], in assay [2], in assay [4], in assay [5], in assay [6] and in [7] was above 100 µM each time.

Turning to `CCCC(CCC)NCC(O)c1cc(-c2ccc(C(F)(F)F)cc2)nc(C(F)(F)F)c1` (centres undefined), the GI50 in assay [1] was 1.73 µM; in assay [2] it was 2.46 µM; in assay [3], 1.4 µM; in assay [4], 1.89 µM; in [5] it was 1.74 µM; in assay [6], 1.94 µM. Further, the GI50 in assay [7] was 1.58 µM; in assay [9] it was 1.43 µM; in [8], 1.53 µM. In addition, the TGI in assay [1] was 3.1 µM; in assay [2], 5.7 µM; in [3] it was 3.27 µM; in [4], 3.84 µM; in assay [5] it was 3.22 µM; in assay [6] it was 3.98 µM. For the same molecule, the TGI in [7] was 3.13 µM; in assay [9], 2.87 µM; in [8] it was 3.17 µM.

As to `O=C(CCc1nc(=S)[nH][nH]1)Nc1ccccc1Cl`, the TGI in assay [1], in [2], in [3], in [4], in [5] and in assay [6] was above 100 µM throughout. In assay [7], this molecule gave a TGI above 100 µM.

Source of the values: PubChem BioAssay (NCI).
